Test results taken from patent US20230141034A1, “ADAMANTANE-1-CARBONYL THIOUREA, AS P2X RECEPTOR ANTAGONIST” (COMSATS UNIVERSITY ISLAMABAD, priority 2021, published 2023).

Assays:
h-P2X4 [1] = biological target: T1, h-P2X4 (Homo sapiens, UniProt Q99571); test: Mode of receptor inhibition, ATP dose-response curve at h-P2X4R; assay type: cell-based; set-up: expressed in transfected cells; host or cells: human 1321N1 astrocytoma cells
T1 sequence (Q99571 1-388): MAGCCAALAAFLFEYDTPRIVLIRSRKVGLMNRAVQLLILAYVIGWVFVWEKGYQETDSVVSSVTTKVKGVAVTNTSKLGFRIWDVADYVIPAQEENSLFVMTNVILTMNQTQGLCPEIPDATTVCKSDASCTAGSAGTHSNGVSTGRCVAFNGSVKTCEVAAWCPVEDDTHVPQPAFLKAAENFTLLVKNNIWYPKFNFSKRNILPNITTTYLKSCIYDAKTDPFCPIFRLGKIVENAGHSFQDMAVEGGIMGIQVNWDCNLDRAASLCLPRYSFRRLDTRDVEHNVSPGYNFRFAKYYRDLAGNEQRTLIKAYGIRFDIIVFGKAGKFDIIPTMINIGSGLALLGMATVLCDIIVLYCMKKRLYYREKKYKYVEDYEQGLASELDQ
Description: (§1) Different dilutions of compounds were administered to receptors expressed cell line.

HeLa cell line = test: MTT cytotoxicity assay, HeLa cell line; assay type: cell-based; details: final concentration of 50 μM
Description: (§2) Cellular safety profiling of adamantane thioureas were done through MTT assay. All compounds were analyzed for toxicity at final concentration of 50 μM. […] Toxicity was determined against two cancer cell lines including human 1321N1 Astrocytoma cell line, HeLa cell line and a normal HEK-293 cell line.
(§3) c. Cell Viability Assay (MTT Assay)
(§4) After 24 h of incubation at 37° C. in CO2 incubator, culture media will be replaced with serum-free media along with test compounds and re-incubate. After 24 h, media will be removed and add 100 μL of MTT reagent (0.5-5 mg/mL) and will be incubated for a further 4 h, at 37° C. Absorbance will be measured at 570 and 630 nm to calculate cell viability.

HEK-293 cell line = test: MTT cytotoxicity assay, HEK-293 cell line; assay type: cell-based; details: final concentration of 50 μM
Description: as §2, §3, §4

[2] = tested on: human 1321N1 Astrocytoma cell line; test: MTT cytotoxicity assay, human 1321N1 astrocytoma cell line; assay type: cell-based; details: final concentration of 50 μM
Description: as §2, §3, §4

h-P2X7 [3] = biological target: T2, h-P2X7 (Homo sapiens, UniProt Q99572); test: Mode of receptor inhibition, BzATP dose-response curve at h-P2X7R; assay type: cell-based; set-up: expressed in transfected cells; host or cells: human 1321N1 astrocytoma cells
T2 sequence (Q99572 1-595): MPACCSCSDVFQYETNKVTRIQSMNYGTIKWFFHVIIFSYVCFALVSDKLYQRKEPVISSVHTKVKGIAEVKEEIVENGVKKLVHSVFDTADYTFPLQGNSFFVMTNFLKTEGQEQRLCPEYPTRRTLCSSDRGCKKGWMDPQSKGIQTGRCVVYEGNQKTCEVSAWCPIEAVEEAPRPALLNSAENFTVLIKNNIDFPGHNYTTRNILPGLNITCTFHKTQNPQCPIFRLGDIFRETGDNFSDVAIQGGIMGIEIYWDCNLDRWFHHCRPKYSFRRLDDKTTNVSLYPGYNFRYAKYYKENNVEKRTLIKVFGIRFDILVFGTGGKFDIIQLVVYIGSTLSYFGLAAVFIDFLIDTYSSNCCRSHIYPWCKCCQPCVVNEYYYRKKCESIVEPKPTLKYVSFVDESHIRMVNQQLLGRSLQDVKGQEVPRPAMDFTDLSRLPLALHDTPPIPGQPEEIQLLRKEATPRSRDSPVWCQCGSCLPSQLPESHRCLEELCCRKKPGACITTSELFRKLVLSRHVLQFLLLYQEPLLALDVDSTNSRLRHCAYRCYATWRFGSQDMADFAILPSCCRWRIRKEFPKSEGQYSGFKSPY
Description: as §1

h-P2X5 = h-P2X5 (Homo sapiens, UniProt Q93086); test: Ca2+ flux assay h-P2X5; details: read-out: h-P2X5 % Inhibition
Sequence of h-P2X5 (Q93086 whole entry): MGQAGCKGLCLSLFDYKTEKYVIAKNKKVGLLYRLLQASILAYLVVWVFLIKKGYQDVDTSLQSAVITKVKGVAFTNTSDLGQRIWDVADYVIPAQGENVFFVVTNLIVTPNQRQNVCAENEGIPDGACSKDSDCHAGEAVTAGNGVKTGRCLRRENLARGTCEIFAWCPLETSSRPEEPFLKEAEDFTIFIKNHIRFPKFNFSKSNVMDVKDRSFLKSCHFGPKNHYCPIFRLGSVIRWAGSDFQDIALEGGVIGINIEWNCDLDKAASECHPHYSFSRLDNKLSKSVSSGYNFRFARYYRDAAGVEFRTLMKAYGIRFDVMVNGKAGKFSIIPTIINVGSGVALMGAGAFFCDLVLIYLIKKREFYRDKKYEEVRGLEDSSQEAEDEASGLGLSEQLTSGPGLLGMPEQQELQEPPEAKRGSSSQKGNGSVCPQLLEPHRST
Description: (§5) Compounds were initially analyzed at a final concentration of about 50 μM and percentage of inhibition was calculated.
(§6) Calcium Mobilization Assay to Measure P2X Receptors Response Cell Culture: P2X receptors functions can be analyzed from ATP-induced increase in cytosolic Ca^2+ concentration. Two Ca^2+ chelating dyes, Fura-2 AM and Fluo-4 AM can be used to determine the intracellular Ca^2+ concentration through a fluorescent imaging micro-titer plate reader (BMG Labtech: FLUOstar Galaxy®). Non-transfected human 1321N1 astrocytoma cells, as well as P2X receptors transfected human 1321N1 astrocytoma cells will be cultured in T-75 cm^2 cell culture flask having appropriate cell culture growth media; Dulbecco's Modified Eagle's medium (DMEM) supplemented with 10% fetal bovine serum (FBS), 75 μg/mL of Hygromycin B or human P2X receptors transfected cell lines and 1% pen-strep (antibiotics). Cells will be incubated at 37° C. in 5% CO2 incubator until 80 to 90% cell confluency will be achieved. Cells will be maintained in an exponential growth phase throughout the experiment and closely monitored for contamination.
Measurement of Ca^2+ Flux
(§7) When 1321N1 cells will reach 80 to 90% of confluency, cells will be harvested from T-75 cm^2 flask by trypsinization. After washing the cells with phosphate buffer saline (PBS), cells will be seeded at a density of 20,000 cells/well in black, clear bottom, poly-D-lysine coated 96 well plate. After 16 to 24 h, cell culture media will be removed and add Hank's balanced salt solution (HBSS) containing 3 μM Ca^2+ chelating dyes Fura-2 AM or Fluo-4 AM. After 1 h of incubation at 23° C., the loading dye solution will be removed, and added seven to eight dilutions of test compounds in triplicate format. ATP (at a concentration value of EC80) or buffer will be added and measured the excitation and emission at 340/520 nm and 380/520 nm through FLUOStar Galaxy®. Assay volume for the experiment will be 200 μL. IC50 and EC50 values will be calculated by PRISM 5.0 (GrapgPad, San Diego, Calif., USA) through non-linear regression analysis.

h-P2X2 = biological target: T3, h-P2X2 (Homo sapiens, UniProt Q9UBL9); test: Ca2+ flux assay h-P2X2; details: for inhibition at 50 µM: read-out: h-P2X2 % Inhibition
T3 sequence (Q9UBL9 1-471): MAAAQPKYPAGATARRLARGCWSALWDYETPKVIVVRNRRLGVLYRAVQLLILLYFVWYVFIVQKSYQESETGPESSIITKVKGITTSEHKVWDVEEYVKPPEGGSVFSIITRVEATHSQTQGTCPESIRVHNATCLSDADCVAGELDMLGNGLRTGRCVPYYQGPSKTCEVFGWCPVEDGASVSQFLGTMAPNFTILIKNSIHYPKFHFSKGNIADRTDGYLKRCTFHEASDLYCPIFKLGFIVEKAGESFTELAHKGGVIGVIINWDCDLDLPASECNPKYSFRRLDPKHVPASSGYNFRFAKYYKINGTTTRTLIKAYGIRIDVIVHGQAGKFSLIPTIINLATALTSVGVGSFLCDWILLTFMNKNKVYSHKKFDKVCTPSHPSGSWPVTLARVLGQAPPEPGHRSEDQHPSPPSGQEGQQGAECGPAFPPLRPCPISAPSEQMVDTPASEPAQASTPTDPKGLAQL
Description: as §5, §6
Measurement of Ca^2+ Flux
as §7

h-P2X7 [4] = biological target: T2, h-P2X7; test: Ca2+ flux assay h-P2X7; details: for IC50: read-out: h-P2X7 IC50 ± SEM, Ca2+ flux, n = 3
Description: as §5, §6
Measurement of Ca^2+ Flux
as §7

h-P2X7 [5] = biological target: T2, h-P2X7; test: BzATP induced Ethidium Bromide dye-uptake assay (pore formation); assay type: cell-based; set-up: expressed in transfected cells; host or cells: human 1321N1 astrocytoma cells; details: for Emax at 20 µM: read-out: Emax % (at 20 μM inhibitor concentration), BzATP induced Ethidium Bromide dye uptake, 20 μM inhibitor concentration, BzATP without inhibitor = 100; for IC50: serial dilution curves, read-out: IC50 ± SEM, BzATP induced Ethidium Bromide dye uptake
From the text: This is a specific assay to access the activities of P2X7R. Prolong exposure of P2X7R leads to pore formation that results intake of large molecular weight dye through this pore. An inhibitor of P2X7R inhibits this pore formation that confirms the inhibitory potential of compounds.
e. Ethidium Bromide Dye-Uptake Assay for P2X7 Receptors: (Pore Formation)
Human astrocytoma 1321N1 cells stably expressing P2X7 receptors will be seeded in the black wall, clear bottom and poly-D-lysine coated 96 wells plate at a cell density of 20,000 cells/well. After 24 h of incubation, culture medium will be removed, and wash the cells with dye uptake buffer. Cells will be treated with ethidium bromide with the subsequent addition of different concentrations of Bz-ATP to 96 wells plate in triplicate format. […] For screening of P2X7 receptor antagonists, cells will be treated with different concentrations of test compounds for 15 min at 37° C. before the addition of Bz-ATP.

[6] = MTT cytotoxicity assay, HeLa cell line; assay type: cell-based; details: human, HeLa cells, final concentration of 50 μM
Description: as §2, §3, §4

[7] = MTT cytotoxicity assay, HEK-293 cell line; assay type: cell-based; details: human, HEK-293 cells, final concentration of 50 μM
Description: as §2, §3, §4

h-P2X4 [8] = biological target: T1, h-P2X4; test: Ca2+ flux assay h-P2X4; details: for IC50: read-out: h-P2X4 IC50 ± SEM, Ca2+ flux, n = 3
Description: as §5, §6
Measurement of Ca^2+ Flux
as §7

[9] = MTT cytotoxicity assay, human 1321N1 astrocytoma cell line; assay type: cell-based; details: human, 1321N1 astrocytoma cells, final concentration of 50 μM
Description: as §2, §3, §4

SMILES	inhibition at 50 µM (h-P2X5)	inhibition at 50 µM (h-P2X2)	IC50 (h-P2X7 [4])	HeLa Cell Line (% cytotoxicity) (HeLa cell line)	HEK-293 Cell Line (% cytotoxicity) (HEK-293 cell line)	Human 1321N1 Astrocytoma Cell Line (% cytotoxicity) [2]	cytotoxicity at 24 h, 50 µM [6]	cytotoxicity at 24 h, 50 µM [7]	cytotoxicity at 24 h, 50 µM [9]	other results
Nc1ncnc2c1ncn2[C@@H]1O[C@H](COP(=O)(O)OP(=O)(O)OP(=O)(O)O)[C@@H](O)[C@H]1O [ATP, reference compound]										EC50 (h-P2X4 [1]; ATP without inhibitor, read-out: EC50 of ATP induced response): 5450 nM
CC(C)c1cc(Br)c(NC(=O)Nc2cccnc2)c(Br)c1 [BX-430, reference compound]				9.12%	2.85%	20.21%				
Nc1ncnc2c1ncn2[C@@H]1O[C@H](COP(=O)(O)OP(=O)(O)OP(=O)(O)O)[C@@H](OC(=O)c2ccc(C(=O)c3ccccc3)cc2)[C@H]1O [BzATP, reference compound]										EC50 (h-P2X7 [3]; BzATP without inhibitor, read-out: EC50 of BzATP induced response): 7090 nM
O=C(NC(=S)Nc1cccc2cccnc12)C12CC3CC(CC(C3)C1)C2 [Io, N-(quinolin-8-ylcarbamothioyl)adamantane-1-carboxamide]	31.5%	15.3%	73 ± 40 nM				6.22%	17.6%	9.12%	mechanism of receptor inhibition (h-P2X7 [3]; h-P2X7R expressed cell line, different dilutions of compound): negative allosteric modulators; Emax at 20 µM (h-P2X7 [5]): 70%; IC50 (h-P2X7 [5]): 136 ± 20 nM; inhibition at 50 µM (h-P2X4 [8]; read-out: h-P2X4 % Inhibition): 25.1%
Cc1nc(N=Nc2ccc(S(=O)(=O)O)cc2S(=O)(=O)O)c(COP(=O)(O)O)c(C=O)c1O [PPADS, reference compound]				17.92%	42.58%	19.02%				
Nc1c(S(=O)(=O)O)cc(Nc2ccc(Nc3nc(Cl)nc(Nc4cccc(S(=O)(=O)O)c4)n3)c(S(=O)(=O)O)c2)c2c1C(=O)c1ccccc1C2=O [Reactive Blue 2, reference compound]			2790 ± 220 nM	14.47%	39.89%	20.82%				IC50 (h-P2X2; read-out: h-P2X2 IC50 ± SEM, Ca2+ flux, n = 3): 890 ± 410 nM

More lines, main results first:

inhibition at 50 µM (h-P2X5)	inhibition at 50 µM (h-P2X2)	IC50 (h-P2X7 [4])	SMILES	HeLa Cell Line (% cytotoxicity) (HeLa cell line)	HEK-293 Cell Line (% cytotoxicity) (HEK-293 cell line)	Human 1321N1 Astrocytoma Cell Line (% cytotoxicity) [2]	cytotoxicity at 24 h, 50 µM [6]	cytotoxicity at 24 h, 50 µM [7]	cytotoxicity at 24 h, 50 µM [9]	other results
25.5%	13.2%	99 ± 70 nM	O=C(NC(=S)Nc1cccnc1Cl)C12CC3CC(CC(C3)C1)C2 [If, N-((2-chloropyridin-3-yl)carbamothioyl)adamantane-1-carboxamide]				5.21%	4.95%	11.4%	Emax at 20 µM (h-P2X7 [5]): 47%; IC50 (h-P2X7 [5]): 310 ± 70 nM; IC50 (h-P2X4 [8]): 1270 ± 110 nM
12.4%	30.2%		CC(C)c1ccc(NC(=S)NC(=O)C23CC4CC(CC(C4)C2)C3)c(Br)c1 [Ip, N-((2-bromo-4-isopropylphenyl)carbamothioyl)adamantane-1-carboxamide]				23.5%	20.6%	19.7%	inhibition at 50 µM (h-P2X7 [4]; read-out: h-P2X7 % Inhibition): 42.5%; mechanism of receptor inhibition (h-P2X4 [1]; h-P2X4R expressed cell line, different dilutions of compound): negative allosteric modulators; IC50 (h-P2X4 [8]): 40 ± 10 nM
